Counter-ions that a name gives are not always drawn.

Common to all, as to format: in vitro ADME
Data set [1] can be described thus: Stability of conjugates in Simulated Gastric Fluid (SGF). The following applies: SGF pH 1.6 with pepsin, 37° C., 1 μM compound. In outline:
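Compound at 1 μM (from 1 mM DMSO stock) in pH 1.6 NaCl medium with FaSSIF powder and 0.1 mg/mL pepsin, mixed at 37° C. Aliquots quenched with equal volume acetonitrile at T0 and regular intervals; LC/MS gives degradation rate.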

A short description of data set [2]: In Vitro Biotransformation and Detection of Monomethyl Fumarate Assay. To be noted: FaSSIF with pancreatin pH 6.5, 100 μM compound, 0 h and 2 h, UHPLC-MSMS. The procedure: Stock solution of compound 2 was prepared at 10 mM in DMSO. FaSSIF was made by mixing sodium taurocholate (3.0 mM) Lecithin (0.75 mM), and pancreatin (10 mg/mL) in prepared solution of sodium phosphate monobasic (28.4 mM), sodium hydroxide (8.7 mM), sodium chloride (105.9 mM), pH 6.5. Compound 2, was added to FaSSIF to final concentration of 100 μM. Release of monomethyl fumaric acid (MMF) was monitored via UHPLC-MSMS and comparing the retention time and corresponding fragmentation of released MMF to retention time and fragmentation of a neat solution of MMF that was analyzed separately with the same method described below. Release of MMF was measured at 0 h and 2 h time points. At both time points samples were centrifuged at 14000 rpm for 10 minutes at 4° C. Supernatants were then transferred to HPLC vials and analyzed immediately. The results of this assay are illustrated in FIG. 1.

The nature of data set [3]: Stability of conjugates in Simulated Intestinal Fluid (SIF). To be noted: SIF pH 6.7 with pancreatin, 37° C., 1 μM compound. Put shortly:
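Compounds at 1 μM in fresh simulated intestinal fluid: FaSSIF powder in pH 6.7 phosphate buffer with pancreatin. Agitated at 37 °C; aliquots taken at T0 and regular intervals, quenched with 1 volume acetonitrile. Degradation rates determined by LC/MS.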

Data set [4] is described as follows: In vitro Colonic Material Stability Assay. To be noted: colonic material slurry in YCFAC media, anaerobic, 1 or 10 μM. In outline:
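Anaerobically, a colonic material slurry (15% w/v) was inoculated into YCFAC or other suitable media. Compounds were added at 1 or 10 μM final. Samples taken at 0–2880 min were quenched with acetonitrile containing internal standard and analysed by LC/MS.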

For the compound `CCC(=O)O[C@@H]1[C@@H](OC(=O)CC)[C@H](C)O[C@@H](OC(=O)/C=C/C(=O)OC)[C@@H]1OC(=O)CC` [Compound 2, Methyl ((2S,3R,4R,5S,6S)-6-methyl-3,4,5-tris(propionyloxy)tetrahydro-2H-pyran-2-yl) fumarate], in data set [1], the “Assay 1 (SGF) (% Remaining @ 1 hour)” value is listed as “C (C: >75% of the tested compound remaining)”. In data set [2], the “Release of monomethyl fumaric acid (MMF)” value is on record as “actively released”. Also, the “Assay 2 (SIF) (% @ Remaining 4 hours)” value in data set [3] is “B (B: 25-75% of the tested compound remaining)”. The “Assay 3 (% Remaining at 24 h)” value in data set [4] was “C (C: >75% of the tested compound remaining)”.

Source of the values: US20210299079A1, “MONOMETHYL FUMARATE-CARRIER CONJUGATES AND METHODS OF THEIR USE” (Flagship Pioneering Innovations V, Inc., priority 2018, published 2021).
